Test system: senescence-accelerated mouse (SAMP8)
Test: Water maze test in senescence-accelerated mouse (SAMP8)
Format: in vivo
Conditions: SAMP8, 0.25 mg/kg orally once a day, 8 days
Experimental: Using senescence-accelerated mouse (accelerated-senescence-prone mice 8: SAMP8) and normal senescence mouse (accelerated-senescence-resistant mice 1: SAMR1) as a control thereof, a water maze test was performed. Male SAMP8 and SAMR1 (22- to 25-week-old) were available from Takeda Pharmaceutical Company Limited (Osaka, Japan). The mice were individually raised in a cage at 23±1° C., 12 hr light/dark cycle (lighted at 7:00 am), and allowed to freely ingest feed (solid feed) and water.
Racemate DCP-LA and 4 optical isomers DCP-LA (α,α-, α,β-, β,α-, β,β-DCP-LA), each dissolved in 0.1 ml polyethylene glycol (PEG), or 0.1 ml PEG were orally administered once a day from the day when the water maze test was started. For each group, the water maze test was performed twice a day for 8 days, and the time required to reach a platform (acquisition latency) was measured.
For the water maze test, a circular plastic water tank (diameter 90 cm, depth 36 cm) was used. The inside of the water tank was completely painted in black, and dark water with India ink was filled up to 20 cm from the bottom (22° C.). A platform (diameter 11 cm) painted in black was placed in water such that it was 1 cm below the water surface. The water tank was placed in a test room, and several marks seen by the mice from the water tank were put thereon. During the test, the position of the marks was not changed. A platform was placed a predetermined position from the equal distance from the center and the end of the water tank, namely, center of one quadrant. At one of the randomly selected 5 points, the mouse was released facing the wall of the water tank, and the time necessary for evacuating on the platform (acquisition latency) was measured. When smoothly evacuated, the mouse was left on the platform for 10 seconds. From the day of water maze test and during the test, polyethylene glycol (PEG) alone or racemate DCP-LA (1 mg/kg), α,α-DCP-LA (0.25 mg/kg), α,β-DCP-LA (0.25 mg/kg), β,α-DCP-LA (0.25 mg/kg), or β,β-DCP-LA (0.25 mg/kg), each dissolved in PEG, was orally administered every day. The water maze test was performed twice a day, and the second test was started at 2 min from the first test. The test was continuously performed for 8 days, and the average value (±SEM) of acquisition latency of continuous 2 days until the mouse reached the platform was calculated (each n=5).

## CCCCC[C@@H]1C[C@@H]1C[C@@H]1C[C@H]1CCCCCCCC(=O)O [α,β-DCP-LA, 8-[(1R,2S)-2-{(1R,2R)-2-pentylcyclopropylmethyl}-cyclopropyl]octanoic acid]
  acquisition latency as compared to the PEG administration group: shortened acquisition latency
  acquisition latency as compared to the racemate DCP-LA (1 mg/kg) administration group: significantly shortened acquisition latency
  acquisition latency as compared to the α,α-DCP-LA (0.25 mg/kg) administration group: significantly shortened acquisition latency
